In patent US12246082B2, “Efficient sunscreen compositions with diethylamino hydroxybenzoyl hexyl benzoate and butyl methoxydibenzoylmethane free of octocrylene” (BASF SE, priority 2019, dated 2025) one finds polarity index, solubility and absorption maximum data, which are given here for twelve molecules.

The nature of series [1]: Measurement of interfacial tension (polarity index) of emollients. It is filed as physicochemical. Conditions: Tensimat Densimat TD2000. The source says:
The term “polarity index” refers to non-polar or polar oils. Non-polar oils are mainly based on hydrocarbons and lack an electronegative element, such as oxygen. In contrast, polar oils contain heteroatoms that differ in electronegativity, which results in a dipole moment. However, such oils are still insoluble in water, i.e. hydrophob. The polarity index can be determined by measuring the interfacial tension between the respective oil and water.
Interfacial tension of the respective emollients as listed below was measured using a Tensimat Densimat TD2000.

Series [2] is described as follows: Solubility measurements of UV filter in emollients. Conditions: 25° C., seven days. It is filed as physicochemical.
Protocol: The vial is placed in a thermostated water bath (25° C.) and the blend is stirred for seven days. If the tested UV-filter is fully soluble, additional filter is added until precipitation is observed. After seven days, the sample is centrifuged for 30 minutes at 13000 rpm. If the supernatant is turbid, it is filtered through a 0.2 μm non steril Membrex 25 PET filter.
The conditions of series [3]: stated in the description; cited from earlier work.

Structures can show the parent of a compound that is named as a salt. Some results are limits rather than exact numbers.

On to `CCCCOC(=O)CCCCC(=O)OCCCC` [dibutyl adipate], for which the polarity index in series [1] worked out at 14 mN/m.
As for `CCCCCCOC(=O)c1ccccc1C(=O)c1ccc(N(CC)CC)cc1O` [DHHB, hexyl 2-[4-(diethylamino)-2-hydroxybenzoyl]benzoate], the solubility is given as 22% in series [2] (in C12-15 alkyl benzoate); 23% in series [2] (in butylene glycol dicaprylate/dicaprate); 14% in series [2] (in caprylic capric triglyceride); less than 1% in series [2] (in cyclomethicone); 31% in series [2] (in dibutyl adipate); 21% in series [2] (in diisopropyl adipate). The solubility in series [2] (in diisopropyl sebacate) is listed as 41%; in series [2] (in hydrogenated polyisobutene), less than 1%; in series [2] (in mineral oil), less than 1%; in series [2] (in octyldodecanol) it was 2.5%; in series [2] (in phenethyl benzoate), 57%; in series [2] (in propylene glycol dicaprylate/dicaprate), 22%. Further, the solubility in series [2] (in tributyl citrate) is reported as 29.4%; in series [2] (in triethyl citrate), 29%. The absorption maximum in series [3] is 354 nm.
For `CC(C)OC(=O)CCCCC(=O)OC(C)C` [diisopropyl adipate], in series [1], the polarity index is listed as 12 mN/m.
On to `CCCCC(CC)COC(=O)/C=C/c1ccc(OC)cc1` (centres unmarked) [ethylhexyl methoxy cinnamate, 2-Ethylhexyl-(2E)-3-(4-methoxyphenyl)acrylate], for which, in series [3], the absorption maximum is 310 nm.
`C[Si]1(C)O[Si](C)(C)O[Si](C)(C)O[Si](C)(C)O[Si](C)(C)O1` [cyclopentasiloxane] displayed a polarity index in series [1] of 32 mN/m.
`O=C(OCCc1ccccc1)c1ccccc1` [phenethyl benzoate]: the polarity index in series [1] is given as 19 mN/m.
`CC(C)OC(=O)CCCCCCCCC(=O)OC(C)C` [diisopropyl sebacate] showed a polarity index in series [1] of 19 mN/m.
In the case of `COc1ccc(C(=O)CC(=O)c2ccc(C(C)(C)C)cc2)cc1` [BMDBM, 1-(4-(1,1-dimethylethyl)phenyl)-3-(4-methoxyphenyl)propane-1,3-dione], the absorption maximum in series [3] is given as 357 nm.
As for `CCCCC(CC)COC(=O)c1ccc(Nc2nc(Nc3ccc(C(=O)NC(C)(C)C)cc3)nc(Nc3ccc(C(=O)OCC(CC)CCCC)cc3)n2)cc1` (centres unmarked) [diethylhexyl-butamidotriazone, 4,4′-[[6-[[4-[[(1,1-dimethylethyl)amino]carbonyl]phenyl]amino]-1,3,5-triazin-2,4-diyl]diimino]bis-benzoic acid-bis(2-ethylhexyl)ester], the absorption maximum in series [3] is recorded as 310 nm.
As for `CCCCOC(=O)CC(O)(CC(=O)OCCCC)C(=O)OCCCC` [tributyl citrate], in series [1], the polarity index is 10 mN/m.
As for `CCCCCCCCCCC(CO)CCCCCCCC` (centres unmarked) [octyldodecanol], the polarity index in series [1] was 25 mN/m.
For the molecule `CCOC(=O)CC(O)(CC(=O)OCC)C(=O)OCC` [triethyl citrate], the polarity index in series [1] was determined as 7 mN/m.
